According to EP0324212A1, “Glucuronic acid derivatives of opioid antagonists” (BAKER NORTON PHARMACEUTICALS, INC., priority 1988, dated 1989):
Several values for one entry are separate records, joined by “and”; a condition that tells them apart may be missing. Identical values can stand only once. Counter-ions that a name gives are not always drawn. Marks after values point to notes of the source that are not given here.

Assays:
[1] = system: morphine-induced hypomotility; experiment: Charcoal meal assay (gastrointestinal motility) of Witkin et al.; assay type: in vivo, mice; conditions: for effect on percentage of intestine traveled in the absence of morphine: groups 4 and 6, no morphine; for effect on percentage of intestine traveled in the absence of morphine / alleviation of the depressant effect of morphine on intestinal transit: result in words; for alleviation of the depressant effect of morphine on intestinal transit: groups 5 and 7, morphine 10 mg/kg p.o.
Description: To determine whether nalmefene glucuronide would alleviate morphine-induced hypomotility, the charcoal meal assay method of Witkin et al. (J. Pharmacol. Ext. Therep., 133: 400, 1961) was done on 56 mice. […]

opioid-dependant animals = experiment: Rapid Quantitative In Vivo Assay for Narcotic Antagonist of Katovich et al. (skin tail temperature rise as a CNS withdrawal sign); conditions: Figure 2; injection of 1000 µg/kg
Description: The Rapid Quantitative In Vivo Assay for Narcotic Antagonist of Katovich et al. (Substance and Alcohol Actions/Misuse, vol 5: 87095, 1984) was used. This assay is based on the extreme sensitivity of opioid-dependant animals to narcotic antagonists. Injection of these animals with a narcotic antagonist produces severe central nervous system withdrawal signs. One of these signs is an abrupt rise in the skin temperature of the tail.

[2] = Absorption and intestinal distribution of 14C labelled nalmefene glucuronide after oral administration; assay type: in vivo; conditions: rats
Description: However the 2-3% of the dose which had reached the cecum by this time was almost exclusively free nalmefene. Therefore the glucuronide of an opioid antagonist provides a means of preventing narcotic-induced intestinal hypomotility without interfering with central nervous system effects of narcotics, such as analgesia.

[3] = Morphine 10 mg/kg p.o. 30 minutes before drug p.o., 15 mg/kg or 2.9 x 10⁻⁶ M/kg nalmefene glucuronide, 2.9 x 10⁻⁶ M/kg nalmefene HCl, determined 30 min later
[4] = Saline p.o. 30 minutes before drug p.o. (no morphine), 15 mg/kg or 2.9 x 10⁻⁶ M/kg nalmefene glucuronide, 2.9 x 10⁻⁶ M/kg nalmefene HCl, determined 30 min later

Row | Compound | Percent Meal Traveled ± S.E.M. ([1]; mouse, in vivo) | reduction of the percentage of the intestine traveled ([1]; mouse, in vivo) | Percent Meal Traveled ± S.E.M. [1, 3] | Percent Meal Traveled ± S.E.M. [1, 4] | effect on percentage of intestine traveled in the absence of morphine [1] | alleviation of the depressant effect of morphine on intestinal transit [1] | rise in skin tail temperature (opioid-dependant animals) | alleviation of the depressant effect of morphine on intestinal transit ([1]; listed as nalmefene glucuronide) | alleviation of the depressant effect of morphine on intestinal transit ([1]; listed as nalmefene-3β-D-glucuronide) | alleviation of the depressant effect of morphine on intestinal transit ([1]; listed as nalmefene-β-D-glucuronide) | absorption following oral administration ([2]; doses as high as 40 mg/kg) | dose present in the small intestine still as nalmefene glucuronide ([2]; oral, 2 hours after dosing) | radioactivity in plasma ([2]; oral, 2 hours after dosing)
1 | CN1CC[C@]23c4c5ccc(O)c4O[C@H]2[C@@H](O)C=C[C@H]3[C@H]1C5 [Morphine] | 28 ± 2 (N=8)^c Percent and 31 ± 3 (N=8)^c,^g Percent | more than half |  |  |  |  |  |  |  |  |  |  | 
2 | C=C1CC[C@@]2(O)[C@H]3Cc4ccc(O)c5c4[C@@]2(CCN3CC2CC2)[C@H]1O5 [Nalmefene HCl, 6-methylene-6-desoxy-N-cyclopropylmethyl-14-hydroxydihydronormorphine] |  |  | 66 ± 14 (N=5)^d,^e,^f Percent | 63 ± 2 (N=8)^c Percent | neither nalmefene (group 6) nor nalmefene glucuronide (group 4) had any significant effect | protected the intestine against the depressant effect of morphine |  |  |  |  |  |  | 
3 | C=C1CCC2(O)C3Cc4ccc(OC5OC(C(=O)O)C(O)C(O)C5O)c5c4C2(CCN3CC2CC2)C1O5 [Nalmefene Glucuronide, nalmefene-3β-D-glucuronide] |  |  | 58 ± 12 (N=5)^d,^e,^h,^i Percent | 66 ± 3 (N=8)^d Percent | neither nalmefene (group 6) nor nalmefene glucuronide (group 4) had any significant effect |  | had no effect | protected the intestine against the depressant effect of morphine | as effective as nalmefene | as effective as nalmefene | not absorbed to any measurable extent | about 85% | No radioactivity could be detected
